# Results as given in patent US20180042874A1, “METHOD FOR TREATING OSTEOPOROSIS” (China Medical University, priority 2016, published 2018).
# Legend:
# [1] = test system: ERK; test: Western blot of MAPK pathway, phosphorylated ERK; format: cell-based, mouse; details: 10 μg/ml co-treated with 100 ng/ml RANKL, 0-60 minutes
# Procedure: The effect of the compound of formula I on the protein expression of osteoclast MAPKs pathways induced by receptor activator of nuclear factor κB ligand was studied, experiments were performed by using the Western blot method; RAW 264.7 cells were rinsed in ice-cold PBS, cell lysis buffer was added, the components of the buffer solution included: 10 mM 4-(2-hydroxyethyl)-1-piperazineethanesulfonic acid (HEPES), 1.5 mM MgCl2, 0.5 mM dithiothreitol (DTT), 0.5 μg/ml leupeptin and 6.4% Nonidet P-40, reacted on ice for 15 minutes. The cells were scraped off with a spatula, collected into a 1.5 ml centrifuge tube, the cells were thoroughly broken by using a shaker; centrifuged at 12,000 rpm, 4° C. for 10 minutes; supernatant was added into a new 1.5 ml centrifuge tube; boiled with IX sodiumdodecyl sulfate (SDS) sample buffer, followed by electrophoresis using 10 to 12% SDS-PAGE. […] The transfer membrane was rinsed again and the membrane loaded with chemical luminescence reagent ECL was allowed to react with a photosensitive sheet in a darkroom for a suitable period of time, the photosensitive sheet then reacted with the developer. After the photosensitive sheet was exposed to light a band-shaped antibody-binding proteins was observed, quantified by the density of the bands. […]
# [2] = test system: hepatitis B virus (HBV); details: human hepatocellular carcinoma cells; cited from earlier work
compound,measurement,setting,value
"CNC(=O)N[C@]1(C)CCC[C@@]2(C)C3CC[C@@]4(C)C[C@]3(CCC21)CC4=O (single isomer, unassigned; ent-16) [compound of formula I, ent-16-oxobeyeran-19-N-methylureido]",expression of phosphorylated ERK,[1],decreased
same,secretion of hepatitis B virus antigen (HBeAg),[2],effectively suppress
same,secretion of hepatitis B virus surface antigen (HBsAg),[2],effectively suppress
